Experimental data reported in US20250304927A1, “PRO-PEPTIDE VARIANTS FOR MODULATING ACTIVITY OF TRANSGLUTAMINASES” (CURIE CO. INC., priority 2022, published 2025).
Where no end group is shown, it is not given here.

T1: thermostable variant of Streptomyces mobaraensis transglutaminase (Streptomyces mobaraensis, UniProt P81453 79-407)
T1 sequence: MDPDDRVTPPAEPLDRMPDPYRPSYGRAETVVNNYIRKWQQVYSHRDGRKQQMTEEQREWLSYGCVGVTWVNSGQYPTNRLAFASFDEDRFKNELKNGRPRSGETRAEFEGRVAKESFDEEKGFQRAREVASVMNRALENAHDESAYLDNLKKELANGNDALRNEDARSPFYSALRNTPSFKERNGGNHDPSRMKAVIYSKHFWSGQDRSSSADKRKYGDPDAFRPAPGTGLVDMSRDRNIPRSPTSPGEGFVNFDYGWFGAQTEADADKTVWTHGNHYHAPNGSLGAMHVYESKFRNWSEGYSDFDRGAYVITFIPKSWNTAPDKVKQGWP


Experiments:
[1] = target: T2, thermostable mature transglutaminase variant (SEQ ID NO: 3) (Streptomyces mobaraensis, UniProt P81453); type: biochemical; conditions: increase in transglutaminase activity relative to wild-type pro-peptide, casein assay; Method A
T2 construct: made in house; host or cells: E. coli (lysate)
Excerpt: Method A. A bicistronic expression vector encoding the wild-type pro-domain of transglutaminase (SEQ ID NO: 2) and a thermostable mature transglutaminase variant (SEQ ID NO: 3) as separate polypeptides was cloned as described in PCT/US20/49226 (WO2021/178001 A1). The vector was used as a template for synthesis of a random mutagenesis library targeting the pro-domain coding sequence to create pro-domain peptide variants.
Method A. Plasmid libraries containing mature transglutaminase and variant pro-domain peptides were plated on Luria-Bertani (LB) agar plates containing 50 μg/mL of kanamycin. After incubation for at least 16 hours at 37° C., colonies were picked and inoculated into 1 mL of LB broth with 50 μg/mL kanamycin in one well of a 96 deep well culture plate. The plate was covered with a breathable seal and incubated overnight at 37° C. with 400 rpm of shaking. 10 μL of the seed culture was used to inoculate 1 mL of media in a 96 deep well culture plate for expression. The expression plate was allowed to grow for 6-8 hours at 30° C. Expression was then induced by adding isopropyl beta-D-1-thiogalactopyranoside (IPTG) to a final concentration of 1 mM and the temperature was reduced to 20° C. while growth continued for an additional 15 hours. Cells were harvested by centrifugation at 4000 rcf for 30 minutes and pellets were frozen at −80° C.
A secondary screen was performed to determine initial rate of transglutaminase in the presence of the pro-peptide variants using transglutaminase-catalyzed labeling of casein with dansylcadaverine (e.g., a commercially available kit such as the Transglutaminase Fluorogenic Activity Assay Kit, T036, Zedira, Germany). Transglutaminase activity was monitored by measuring the fluorescence (excitation wavelength 332 nm; emission wavelength 500 nm) using a BioTek Synergy H1 microplate reader. Transglutaminase-catalyzed covalent coupling (crosslinking) of monodansylcadaverine with N,N-dimethylcasein produces a product that causes a shift in intensity and wavelength of fluorescence of the dansyl group now linked to the casein. The relative transglutaminase activity is shown by increase of fluorescence intensity over time. The data were normalized for transglutaminase expression levels in E. coli lysate as described above. Pro-domain variants were identified based on their ability to alter the activity of the mature transglutaminase enzyme. […]
It is believed that these pro-peptide variants have reduced binding affinity with mature mTgase.

[2] = target: T1, thermostable variant of Streptomyces …; experiment: cell-based or functional assay
[3] = target: T1, thermostable variant of Streptomyces …; experiment: cell-based or functional assay; remark: listed apart in the source

Improvement in pH responsiveness of inhibitory peptide relative to WT [2] [fold] | Reduction in binding affinity of inhibitory peptide relative to WT [3] [fold] | Molecule | Reduction in binding affinity of inhibitory peptide relative to WT [1] [fold]
– | – | MDNGAGEETKSYAETYRWTADDVANINALNESAPAASSAGPSFRAP [Variant L18W] | >1.2
– | – | MDNGAGEETKSYACTYRLTADDVANINALNESAPAASSAGPSFRAP [Variant E14C] | >1.2
– | – | MDNGAGEETKSYAETYRLTADDVAN [ΔI26-P46] | >1.2
– | – | MDNGAGEETKSYATTYRLTADDVANINALNESAPAASSAGPSFRAP [Variant E14T] | >1.2
– | – | MDNGAGGETKSYAETYRLTADDVANINALNESAPAASSAGPSFRAP [Variant E7G] | >1.2
– | – | MDNGAGEETKSYAETYRLTADDVANANALNESAPAASSAGPSFRAP [Variant I26A] | >1.2
– | – | MDNGAGEETKSYANTYRLTADDVANINALNESAPAASSAGPSFRAP [Variant E14N] | >1.2
– | – | MDNGAGEETKSYAGTYRLTADDVANINALNESAPAASSAGPSFRAP [Variant E14G] | >1.2
– | – | MDNGAGEETKSYAHTYRLTADDVANINALNESAPAASSAGPSFRAP [Variant E14H] | >1.2
– | – | MDNGAGEETKSYAETYRLTADYVANINALNESAPAASSAGPSFRAP [Variant D22Y] | >1.2
– | – | MDNGAGEETKSTAETYRLTADDVANINALNESAPAASSAGPSFRAP [Variant Y12T] | >1.2
– | – | MDNGAGEETRSYAETYRLTADDVANINALNESAPAASSAGPSFRAP [Variant K10R] | >1.2
– | – | MDNGAGEETKSYAETYRLTAD [ΔD22-P46] | >1.2
– | – | MDNGAGEETKSYARTYRLTADDVANINALNESAPAASSAGPSFRAP [Variant E14R] | >1.2
– | – | MDNGAGEETKSYAETYR [ΔL18-P46] | >1.2
– | – | MDNGAGEETKSYAETYRLTADDVANENALNESAPAASSAGPSFRAP [Variant I26E] | >1.2
– | – | MDNGAGEETKLYAETYRLTADDVANINALNESAPAASSAGPSFRAP [Variant S11L] | >1.2
– | – | MDNGAGEETKSYAETYRLTADDVANINALNESAPAASDAGPSFRAP [Variant S38D] | >1.2
– | – | MDNGAGEYTKSYAETYRLTADDVANINALNESAPAASSAGPSFRAP [Variant E8Y] | >1.2
– | – | MDNGAGEETKSPAETYRLTADDVANINALNESAPAASSAGPSFRAP [Variant Y12P] | >1.2
– | – | MDNGAGEEQKSYAETYRLTADDVANINALNESAPAASSAGPSFRAP [Variant T9Q] | >1.2
– | – | MDNGAGEETKS [ΔY12-P46] | >1.2

Improvement in pH responsiveness of inhibitory peptide relative to WT [2] [fold] | Reduction in binding affinity of inhibitory peptide relative to WT [3] [fold] | Molecule | Reduction in binding affinity of inhibitory peptide relative to WT [1] [fold]
– | – | MDNGAGEETKSYAETYRSTADDVANINALNESAPAASSAGPSFRAP [Variant L18S] | >1.2
– | – | MDNGAGEETKSYADTYRLTADDVANINALNESAPAASSAGPSFRAP [Variant E14D] | >1.2
– | – | MDNGAGEETKSYAATYRLTADDVANINALNESAPAASSAGPSFRAP [Variant E14A] | >1.2
– | – | MDNGAGEETKSYAETYRLTADPVANINALNESAPAASSAGPSFRAP [Variant D22P] | >1.2
– | – | MDNGAGEETKSYAETYRLTADDVANYNALNESAPAASSAGPSFRAP [Variant I26Y] | >1.2
– | – | MDNGAGEETKSVAETYRLTADDVANINALNESAPAASSAGPSFRAP [Variant Y12V] | >1.2
– | – | MDNGAGEETDSYAETYRLTADDVANINALNESAPAASSAGPSFRAP [Variant K10D] | >1.2
– | – | MDNGAGEETKSYAETYRKTADDVANINALNESAPAASSAGPSFRAP [Variant L18K] | >1.2
– | – | MDNGAGEETKHYAETYRLTADDVANINALNESAPAASSAGPSFRAP [Variant S11H] | >1.2
> 1.2 | > 1.2 | MDNGAGEETKSVAETYRLTADDVANINALNESAPAASSAGPSFRAP [pro-peptide variant Y12V] | –
> 1.2 | > 1.2 | MDNGAGEETKSYAETYRLTADGVANINALNESAPAASSAGPSFRAP [pro-peptide variant D22G] | –
> 1.2 | > 5 | MDNGAGEETKSYAETYRLTALDVANINALNESAPAASSAGPSFRAP [pro-peptide variant D21L] | –
> 1.2 | > 1.2 | MDNGAGEETKSYAETYRKTADDVANINALNESAPAASSAGPSFRAP [pro-peptide variant L18K] | –
> 1.2 | > 1.2 | MDNGAGEETKSYAETYRLTADDVANYNALNESAPAASSAGPSFRAP [pro-peptide variant I26Y] | –
> 5 | > 1.2 | MDNGAGEETKSYAETYRLTADDVHNINALNESAPAASSAGPSFRAP [pro-peptide variant A24H] | –
> 1.2 | > 5 | MDNGAGEETKSYAETYRLTARDVANINALNESAPAASSAGPSFRAP [pro-peptide variant D21R] | –
> 5 | > 1.2 | MDNGAGEETKSYANTYRLTADDVANINALNESAPAASSAGPSFRAP [pro-peptide variant E14N] | –
> 1.2 | > 1.2 | MDNGAGEETKSYARTYRLTADDVANINALNESAPAASSAGPSFRAP [pro-peptide variant E14R] | –
> 1.2 | > 1.2 | MDNGAGEETKSYAETYRWTADDVANINALNESAPAASSAGPSFRAP [pro-peptide variant L18W] | –
> 1.2 | > 1.2 | MDNGAGEETKSYATTYRLTADDVANINALNESAPAASSAGPSFRAP [pro-peptide variant E14T] | –
> 1.2 | > 1.2 | MDNGAGEETKSYAVTYRLTADDVANINALNESAPAASSAGPSFRAP [pro-peptide variant E14V] | –
> 5 | > 1.2 | MDNGAGEETKSYAGTYRLTADDVANINALNESAPAASSAGPSFRAP [pro-peptide variant E14G] | –
